Reference: the supplement of paper PMC10307832

Experiments:
Assay in all cases: relative viability (nuclei count vs DMSO), 5 days (fraction); higher = more cells survive
NCI-H441 = system: NCI-H441
Method in brief: (§1)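 Each reported value is a median over duplicate plates. It expresses relative viability: treated-well nuclei count divided by vehicle-well nuclei count. Lung cancer cell lines in 1536-well plates were dosed by pin tool a day after seeding, alone with one drug or with a fixed anchor-drug dose plus five library-drug doses (not always all listed) in √10 steps, and nuclei were counted after 5 days.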

NCI-H1395 = system: NCI-H1395
Method in brief: as §1

NCI-H2405 = system: NCI-H2405
Method in brief: as §1

NCI-H2228 = system: NCI-H2228
Method in brief: as §1

NCI-H2342 = system: NCI-H2342
Method in brief: as §1

NCI-H1755 = system: NCI-H1755
Method in brief: as §1

HCC-78 = system: HCC-78
Method in brief: as §1

PC-3 [JPC-3] = system: PC-3 [JPC-3]
Method in brief: as §1

NCI-H522 = system: NCI-H522
Method in brief: as §1

HCC-827 = system: HCC-827
Method in brief: as §1

NCI-H2009 = system: NCI-H2009
Method in brief: as §1

LCLC-97TM1 = system: LCLC-97TM1
Method in brief: as §1

NCI-H647 = system: NCI-H647
Method in brief: as §1

NCI-H520 = system: NCI-H520
Method in brief: as §1

NCI-H1792 = system: NCI-H1792
Method in brief: as §1

ChaGo-K-1 = system: ChaGo-K-1
Method in brief: as §1

NCI-H1355 = system: NCI-H1355
Method in brief: as §1

LOU-NH91 = system: LOU-NH91
Method in brief: as §1

NCI-H661 = system: NCI-H661
Method in brief: as §1

NCI-H1993 = system: NCI-H1993
Method in brief: as §1

SK-MES-1 = system: SK-MES-1
Method in brief: as §1

LK-2 = system: LK-2
Method in brief: as §1

NCI-H2085 = system: NCI-H2085
Method in brief: as §1

With `Oc1nc(-c2ccc(C(F)(F)F)cc2)nc2c1CSCC2` [XAV939] + CC(=O)Nc1cccc(-n2c(=O)n(C3CC3)c(=O)c3c(Nc4ccc(I)cc4F)n(C)c(=O)c(C)c32)c1 [Trametinib] (partner 0.02 µM) the relative viability (NCI-H441; first compound 0.08 µM) was 0.513, the relative viability (NCI-H441; first compound 0.253 µM) was 0.366 and the relative viability (NCI-H441; first compound 0.8 µM) was 0.414. The relative viability (NCI-H441; first compound 2.53 µM) was 0.484, the relative viability (NCI-H1395; first compound 0.08 µM) was 1.02 and the relative viability (NCI-H1395; first compound 0.253 µM) was 0.974. For the same compound, the relative viability (NCI-H1395; first compound 0.8 µM) was 1.11, the relative viability (NCI-H1395; first compound 2.53 µM) was 0.944 and the relative viability (NCI-H2405; first compound 0.08 µM) was 0.685. The relative viability (NCI-H2405; first compound 0.253 µM) was 0.591, the relative viability (NCI-H2405; first compound 0.8 µM) was 0.607 and the relative viability (NCI-H2405; first compound 2.53 µM) was 0.412. It also gave a relative viability (NCI-H2228; first compound 0.08 µM) of 0.429, a relative viability (NCI-H2228; first compound 0.253 µM) of 0.488 and a relative viability (NCI-H2228; first compound 0.8 µM) of 0.541. It also gave a relative viability (NCI-H2228; first compound 2.53 µM) of 0.571, a relative viability (NCI-H2342; first compound 0.08 µM) of 0.834 and a relative viability (NCI-H2342; first compound 0.253 µM) of 0.781. For the same compound, the relative viability (NCI-H2342; first compound 0.8 µM) was 0.717, the relative viability (NCI-H2342; first compound 2.53 µM) was 0.446 and the relative viability (NCI-H1755; first compound 0.08 µM) was 0.719. The relative viability (NCI-H1755; first compound 0.253 µM) was 0.64, the relative viability (NCI-H1755; first compound 0.8 µM) was 0.661 and the relative viability (NCI-H1755; first compound 2.53 µM) was 0.692. For the same compound, the relative viability (HCC-78; first compound 0.08 µM) was 0.827, the relative viability (HCC-78; first compound 0.253 µM) was 0.642 and the relative viability (HCC-78; first compound 0.8 µM) was 0.842. For the same compound, the relative viability (HCC-78; first compound 2.53 µM) was 0.535, the relative viability (PC-3 [JPC-3]; first compound 0.253 µM) was 0.613 and the relative viability (PC-3 [JPC-3]; first compound 0.8 µM) was 0.722. The relative viability (PC-3 [JPC-3]; first compound 2.53 µM) was 0.677, the relative viability (NCI-H522; first compound 0.08 µM) was 0.88 and the relative viability (NCI-H522; first compound 0.253 µM) was 0.713. The relative viability (NCI-H522; first compound 0.8 µM) was 0.888, the relative viability (NCI-H522; first compound 2.53 µM) was 0.725 and the relative viability (HCC-827; first compound 0.08 µM) was 0.592. It also gave a relative viability (HCC-827; first compound 0.253 µM) of 0.504, a relative viability (HCC-827; first compound 0.8 µM) of 0.642 and a relative viability (HCC-827; first compound 2.53 µM) of 0.514. The relative viability (NCI-H2009; first compound 0.08 µM) was 0.287, the relative viability (NCI-H2009; first compound 0.253 µM) was 0.281 and the relative viability (NCI-H2009; first compound 0.8 µM) was 0.19. The relative viability (NCI-H2009; first compound 2.53 µM) was 0.217, the relative viability (LCLC-97TM1; first compound 0.08 µM) was 0.213 and the relative viability (LCLC-97TM1; first compound 0.253 µM) was 0.199. For the same compound, the relative viability (LCLC-97TM1; first compound 2.53 µM) was 0.161, the relative viability (NCI-H647; first compound 0.08 µM) was 0.446 and the relative viability (NCI-H647; first compound 0.253 µM) was 0.433. For the same compound, the relative viability (NCI-H647; first compound 0.8 µM) was 0.386, the relative viability (NCI-H647; first compound 2.53 µM) was 0.372 and the relative viability (NCI-H520; first compound 0.08 µM) was 0.687. For the same compound, the relative viability (NCI-H520; first compound 0.8 µM) was 0.501, the relative viability (NCI-H520; first compound 2.53 µM) was 0.427 and the relative viability (NCI-H1792; first compound 0.08 µM) was 0.492. The relative viability (NCI-H1792; first compound 0.253 µM) was 0.473, the relative viability (NCI-H1792; first compound 0.8 µM) was 0.448 and the relative viability (NCI-H1792; first compound 2.53 µM) was 0.391. The relative viability (ChaGo-K-1; first compound 0.08 µM) was 0.977, the relative viability (ChaGo-K-1; first compound 0.253 µM) was 0.82 and the relative viability (ChaGo-K-1; first compound 0.8 µM) was 0.907. The relative viability (ChaGo-K-1; first compound 2.53 µM) was 0.802, the relative viability (NCI-H1355; first compound 0.08 µM) was 0.367 and the relative viability (NCI-H1355; first compound 0.253 µM) was 0.336. The relative viability (NCI-H1355; first compound 0.8 µM) was 0.38, the relative viability (NCI-H1355; first compound 2.53 µM) was 0.291 and the relative viability (LOU-NH91; first compound 0.08 µM) was 0.811. The relative viability (LOU-NH91; first compound 0.253 µM) was 0.769, the relative viability (LOU-NH91; first compound 0.8 µM) was 0.745 and the relative viability (LOU-NH91; first compound 2.53 µM) was 0.742. For the same compound, the relative viability (NCI-H661; first compound 0.08 µM) was 0.617, the relative viability (NCI-H661; first compound 0.253 µM) was 0.538 and the relative viability (NCI-H661; first compound 0.8 µM) was 0.543. For the same compound, the relative viability (NCI-H661; first compound 2.53 µM) was 0.568, the relative viability (NCI-H1993; first compound 0.08 µM) was 0.541 and the relative viability (NCI-H1993; first compound 0.253 µM) was 0.488. The relative viability (NCI-H1993; first compound 0.8 µM) was 0.411, the relative viability (NCI-H1993; first compound 2.53 µM) was 0.449 and the relative viability (SK-MES-1; first compound 0.08 µM) was 0.554. The relative viability (SK-MES-1; first compound 0.253 µM) was 0.5, the relative viability (SK-MES-1; first compound 0.8 µM) was 0.489 and the relative viability (SK-MES-1; first compound 2.53 µM) was 0.459. It also gave a relative viability (LK-2; first compound 0.08 µM) of 0.788, a relative viability (LK-2; first compound 0.253 µM) of 0.792 and a relative viability (LK-2; first compound 0.8 µM) of 0.703. The relative viability (LK-2; first compound 2.53 µM) was 0.535, the relative viability (NCI-H2085; first compound 0.08 µM) was 0.587 and the relative viability (NCI-H2085; first compound 0.253 µM) was 0.436. The relative viability (NCI-H2085; first compound 0.8 µM) was 0.432 and the relative viability (NCI-H2085; first compound 2.53 µM) was 0.314.
